Assay results: PMC4424274, “Evaluation of [^11C]CB184 for imaging and quantification of TSPO overexpression in a rat model of herpes encephalitis” (European Journal of Nuclear Medicine and Molecular Imaging, 2015)

Target: T1, TSPO (Rattus norvegicus, UniProt P16257)
T1 construct: from tissue; host or cells: Brain regions and peripheral organs of male Wistar rats, measured in vivo by PET and ex vivo by gamma counting
Test: Ex vivo biodistribution of [^11C]CB184 in control and HSE rats
Protocol: PET scans were performed using a microPET Focus 220 camera (Siemens Medical Solutions Inc., Malvern, PA) on either day 6 or day 7 after inoculation with HSV-1 [18], depending on the severity of clinical symptoms. The rats were anaesthetized with 5 % isoflurane mixed with medical air at a flow rate of […]. After induction, anaesthesia was maintained with 1.5 – 2 % of isoflurane. The anaesthetized rats were positioned in the camera in a supine position with the head in the field of view. The PET tracer [^11C]CB184 was manually injected via the penile vein, and at the same time a dynamic 60-min scan was started. […] For 30 min the animals were kept under anaesthesia on the operation table after injection of the PET tracer into the penile vein, and were then placed in the scanner for a 30-min dynamic scan. A transmission scan was obtained in all rats using a ^57Co point source for attenuation and scatter correction. In the pretreated group, 5 mg/kg unlabelled PK11195 (Sigma-Aldrich, St. Louis, MO) in dimethyl sulphoxide (DMSO) at a concentration of 10 mg/ml was administered via a tail vein 5 min before injection of the PET tracer.
The brain and peripheral organs were excised and dissected, and blood was centrifuged to collect a plasma sample. Tissues were weighed and radioactivity was measured in a gamma counter (LKB Wallac, Turku, Finland). Tracer uptake in each region was corrected for the injected tracer dose and body weight and expressed as standardized uptake value (SUV), which was defined as: radioactivity (MBq/cm^3)/[injected dose (MBq)/body weight (g)].

[1] = HSE rats pretreated with 5 mg/kg PK11195, approximately 75 min after injection
[2] = HSE rats, approximately 75 min after injection
[3] = control (PBS) rats pretreated with 5 mg/kg PK11195, approximately 75 min after injection
[4] = control rats, approximately 75 min after injection

Q: For `CCCN(CCC)C(=O)Cc1c(-c2ccc(O[11CH3])cc2)nc2c(Cl)cc(Cl)cn12` [[^11C]CB184], which “SUV ex vivo, Adrenals” value [1] is on record?
A: Its value is 8.14 ± 7.09 SUV.

Q: What about the “SUV ex vivo, Bone” value [1] of the same molecule?
A: The value was 0.39 ± 0.24 SUV.

Q: What about the “SUV ex vivo, Colon” value [1] of the same molecule?
A: Its value is 0.49 ± 0.36 SUV.

Q: What about the “SUV ex vivo, Fat” value [1] of the same molecule?
A: The value was 0.72 ± 0.49 SUV.

Q: And the “SUV ex vivo, Heart” value [1]?
A: Its value is 0.77 ± 0.53 SUV.

Q: What about the “SUV ex vivo, Hippocampus” value [1] of the same molecule?
A: The value was 0.09 ± 0.05 SUV.

Q: And the “SUV ex vivo, Ileum” value [1]?
A: The value was 2.74 ± 1.77 SUV.

Q: And the “SUV ex vivo, Kidney” value [1]?
A: The value was 1.12 ± 0.75 SUV.

Q: What about the “SUV ex vivo, Liver” value [1] of the same molecule?
A: The value was 10.71 ± 9.25 SUV.

Q: What about the “SUV ex vivo, Lung” value [1] of the same molecule?
A: The value was 1.62 ± 0.98 SUV.

Q: And the “SUV ex vivo, Medulla” value [1]?
A: The value was 0.13 ± 0.06 SUV.

Q: And the “SUV ex vivo, Pancreas” value [1]?
A: Its value is 0.62 ± 0.37 SUV.

Q: What about the “SUV ex vivo, Parietal/temporal/occipital cortex” value [1] of the same molecule?
A: Its value is 0.10 ± 0.05 SUV.

Q: And the “SUV ex vivo, Plasma” value [1]?
A: Its value is 0.19 ± 0.04 SUV.

Q: And the “SUV ex vivo, Pons” value [1]?
A: The value was 0.12 ± 0.10 SUV.

Q: And the “SUV ex vivo, Red blood cells” value [1]?
A: Its value is 0.11 ± 0.07 SUV.

Q: What about the “SUV ex vivo, Spleen” value [1] of the same molecule?
A: The value was 0.71 ± 0.55 SUV.

Q: What about the “SUV ex vivo, Stomach” value [1] of the same molecule?
A: Its value is 0.82 ± 0.60 SUV.

Q: What about the “SUV ex vivo, Striatum” value [1] of the same molecule?
A: The value was 0.09 ± 0.06 SUV.

Q: What about the “SUV ex vivo, Submandibularis” value [1] of the same molecule?
A: The value was 0.79 ± 0.56 SUV.

Q: And the “SUV ex vivo, Testis” value [1]?
A: The value was 0.29 ± 0.21 SUV.

Q: What about the “SUV ex vivo, Thymus” value [1] of the same molecule?
A: Its value is 0.74 ± 0.46 SUV.

Q: What about the “SUV ex vivo, Whole brain” value [1] of the same molecule?
A: The value was 0.08 ± 0.08 SUV.

Q: What about the “SUV ex vivo, Adrenals” value [2] of the same molecule?
A: Its value is 13.86 ± 4.42 SUV.

Q: What about the “SUV ex vivo, Amygdala/piriform cortex” value [2] of the same molecule?
A: Its value is 0.52 ± 0.21 SUV.

Q: What about the “SUV ex vivo, Bone” value [2] of the same molecule?
A: The value was 0.98 ± 0.14 SUV.

Q: What about the “SUV ex vivo, Colon” value [2] of the same molecule?
A: The value was 3.29 ± 0.81 SUV.

Q: And the “SUV ex vivo, Fat” value [2]?
A: The value was 0.57 ± 0.39 SUV.

Q: And the “SUV ex vivo, Heart” value [2]?
A: The value was 23.69 ± 2.71 SUV.

Q: And the “SUV ex vivo, Hippocampus” value [2]?
A: The value was 0.55 ± 0.21 SUV.

Q: And the “SUV ex vivo, Ileum” value [2]?
A: Its value is 6.20 ± 2.67 SUV.

Q: And the “SUV ex vivo, Kidney” value [2]?
A: Its value is 13.17 ± 2.25 SUV.

Q: What about the “SUV ex vivo, Liver” value [2] of the same molecule?
A: Its value is 7.97 ± 1.73 SUV.

Q: And the “SUV ex vivo, Lung” value [2]?
A: Its value is 22.53 ± 2.41 SUV.

Q: What about the “SUV ex vivo, Medulla” value [2] of the same molecule?
A: Its value is 1.51 ± 0.57 SUV.

Q: And the “SUV ex vivo, Olfactory bulb” value [2]?
A: The value was 1.52 ± 0.22 SUV.

Q: And the “SUV ex vivo, Pancreas” value [2]?
A: Its value is 4.23 ± 0.76 SUV.

Q: And the “SUV ex vivo, Parietal/temporal/occipital cortex” value [2]?
A: Its value is 0.41 ± 0.14 SUV.

Q: And the “SUV ex vivo, Plasma” value [2]?
A: Its value is 0.28 ± 0.24 SUV.

Q: What about the “SUV ex vivo, Pons” value [2] of the same molecule?
A: The value was 1.26 ± 0.52 SUV.

Q: And the “SUV ex vivo, Red blood cells” value [2]?
A: The value was 0.13 ± 0.01 SUV.

Q: And the “SUV ex vivo, Spleen” value [2]?
A: The value was 11.76 ± 1.42 SUV.

Q: What about the “SUV ex vivo, Stomach” value [2] of the same molecule?
A: The value was 5.88 ± 1.87 SUV.

Q: And the “SUV ex vivo, Striatum” value [2]?
A: Its value is 0.45 ± 0.15 SUV.

Q: And the “SUV ex vivo, Submandibularis” value [2]?
A: Its value is 4.89 ± 0.75 SUV.

Q: What about the “SUV ex vivo, Testis” value [2] of the same molecule?
A: Its value is 0.88 ± 0.12 SUV.

Q: What about the “SUV ex vivo, Thymus” value [2] of the same molecule?
A: Its value is 3.23 ± 0.33 SUV.

Q: And the “SUV ex vivo, Whole brain” value [2]?
A: Its value is 0.99 ± 0.21 SUV.

Q: What about the “SUV ex vivo, Adrenals” value [3] of the same molecule?
A: Its value is 7.72 ± 5.20 SUV.

Q: What about the “SUV ex vivo, Bone” value [3] of the same molecule?
A: Its value is 0.31 ± 0.19 SUV.

Q: And the “SUV ex vivo, Colon” value [3]?
A: Its value is 0.42 ± 0.24 SUV.

Q: And the “SUV ex vivo, Fat” value [3]?
A: Its value is 0.48 ± 0.18 SUV.

Q: And the “SUV ex vivo, Heart” value [3]?
A: Its value is 0.68 ± 0.40 SUV.

Q: What about the “SUV ex vivo, Hippocampus” value [3] of the same molecule?
A: The value was 0.12 ± 0.08 SUV.

Q: What about the “SUV ex vivo, Ileum” value [3] of the same molecule?
A: Its value is 2.31 ± 1.15 SUV.

Q: What about the “SUV ex vivo, Kidney” value [3] of the same molecule?
A: The value was 0.72 ± 0.44 SUV.

Q: What about the “SUV ex vivo, Liver” value [3] of the same molecule?
A: The value was 11.28 ± 5.43 SUV.

Q: What about the “SUV ex vivo, Lung” value [3] of the same molecule?
A: Its value is 0.95 ± 0.57 SUV.

Q: What about the “SUV ex vivo, Medulla” value [3] of the same molecule?
A: Its value is 0.12 ± 0.07 SUV.

Q: What about the “SUV ex vivo, Pancreas” value [3] of the same molecule?
A: Its value is 0.57 ± 0.34 SUV.

Q: And the “SUV ex vivo, Parietal/temporal/occipital cortex” value [3]?
A: The value was 0.10 ± 0.06 SUV.

Q: What about the “SUV ex vivo, Plasma” value [3] of the same molecule?
A: Its value is 0.27 ± 0.15 SUV.

Q: What about the “SUV ex vivo, Pons” value [3] of the same molecule?
A: Its value is 0.12 ± 0.08 SUV.

Q: And the “SUV ex vivo, Red blood cells” value [3]?
A: The value was 0.11 ± 0.05 SUV.

Q: What about the “SUV ex vivo, Spleen” value [3] of the same molecule?
A: Its value is 0.70 ± 0.47 SUV.

Q: And the “SUV ex vivo, Stomach” value [3]?
A: The value was 0.70 ± 0.46 SUV.

Q: What about the “SUV ex vivo, Striatum” value [3] of the same molecule?
A: The value was 0.11 ± 0.07 SUV.

Q: What about the “SUV ex vivo, Submandibularis” value [3] of the same molecule?
A: The value was 0.70 ± 0.46 SUV.

Q: And the “SUV ex vivo, Testis” value [3]?
A: The value was 0.30 ± 0.24 SUV.

Q: And the “SUV ex vivo, Thymus” value [3]?
A: Its value is 0.72 ± 0.44 SUV.

Q: And the “SUV ex vivo, Whole brain” value [3]?
A: Its value is 0.15 ± 0.08 SUV.

Q: What about the “SUV ex vivo, Adrenals” value [4] of the same molecule?
A: The value was 14.84 ± 5.45 SUV.

Q: And the “SUV ex vivo, Bone” value [4]?
A: Its value is 1.00 ± 0.26 SUV.

Q: What about the “SUV ex vivo, Colon” value [4] of the same molecule?
A: The value was 3.38 ± 0.97 SUV.

Q: And the “SUV ex vivo, Fat” value [4]?
A: The value was 0.43 ± 0.21 SUV.

Q: And the “SUV ex vivo, Heart” value [4]?
A: The value was 22.81 ± 2.80 SUV.

Q: And the “SUV ex vivo, Hippocampus” value [4]?
A: The value was 0.39 ± 0.18 SUV.

Q: What about the “SUV ex vivo, Ileum” value [4] of the same molecule?
A: Its value is 6.41 ± 3.07 SUV.

Q: And the “SUV ex vivo, Kidney” value [4]?
A: Its value is 12.52 ± 2.22 SUV.

Q: What about the “SUV ex vivo, Liver” value [4] of the same molecule?
A: Its value is 7.57 ± 1.64 SUV.

Q: What about the “SUV ex vivo, Lung” value [4] of the same molecule?
A: The value was 18.39 ± 2.20 SUV.

Q: What about the “SUV ex vivo, Medulla” value [4] of the same molecule?
A: The value was 0.59 ± 0.14 SUV.

Q: What about the “SUV ex vivo, Pancreas” value [4] of the same molecule?
A: Its value is 3.55 ± 0.52 SUV.

Q: What about the “SUV ex vivo, Parietal/temporal/occipital cortex” value [4] of the same molecule?
A: The value was 0.32 ± 0.06 SUV.

Q: What about the “SUV ex vivo, Plasma” value [4] of the same molecule?
A: Its value is 0.18 ± 0.08 SUV.

Q: What about the “SUV ex vivo, Pons” value [4] of the same molecule?
A: The value was 0.63 ± 0.08 SUV.

Q: And the “SUV ex vivo, Red blood cells” value [4]?
A: Its value is 0.19 ± 0.18 SUV.

Q: And the “SUV ex vivo, Spleen” value [4]?
A: Its value is 13.23 ± 2.64 SUV.

Q: And the “SUV ex vivo, Stomach” value [4]?
A: The value was 5.04 ± 0.82 SUV.

Q: What about the “SUV ex vivo, Striatum” value [4] of the same molecule?
A: Its value is 0.28 ± 0.07 SUV.

Q: What about the “SUV ex vivo, Submandibularis” value [4] of the same molecule?
A: Its value is 4.28 ± 1.02 SUV.

Q: What about the “SUV ex vivo, Testis” value [4] of the same molecule?
A: The value was 0.98 ± 0.11 SUV.

Q: And the “SUV ex vivo, Thymus” value [4]?
A: Its value is 3.36 ± 0.58 SUV.

Q: What about the “SUV ex vivo, Whole brain” value [4] of the same molecule?
A: Its value is 0.66 ± 0.16 SUV.

Q: And the “SUV ex vivo, adrenal glands (mean ± SD)” value (pretreated with unlabelled PK11195, control and HSE groups together)?
A: Its value is 7.93 ± 5.87 SUV.
